Source: US7700277B2, “Use of polymorphisms in human OATP-C associated with an effect on statin pharmacokinetics in humans in statin therapy” (AstraZeneca AB, priority 2003, dated 2010)
Substitutions are numbered along the chain they refer to.

What was measured:
OATP-C [1] = details: cohort of healthy volunteers; Niemi 2004; cited from earlier work
OATP-C [2] = biological target: T1, OATP-C (Homo sapiens, UniProt Q9Y6L6, N130D/V174A); details: Japanese healthy volunteers; Nishizato 2003; cited from earlier work
T1 construct: host or cells: human volunteers (in vivo)
T1 sequence (Q9Y6L6 1-691 N130D/V174A): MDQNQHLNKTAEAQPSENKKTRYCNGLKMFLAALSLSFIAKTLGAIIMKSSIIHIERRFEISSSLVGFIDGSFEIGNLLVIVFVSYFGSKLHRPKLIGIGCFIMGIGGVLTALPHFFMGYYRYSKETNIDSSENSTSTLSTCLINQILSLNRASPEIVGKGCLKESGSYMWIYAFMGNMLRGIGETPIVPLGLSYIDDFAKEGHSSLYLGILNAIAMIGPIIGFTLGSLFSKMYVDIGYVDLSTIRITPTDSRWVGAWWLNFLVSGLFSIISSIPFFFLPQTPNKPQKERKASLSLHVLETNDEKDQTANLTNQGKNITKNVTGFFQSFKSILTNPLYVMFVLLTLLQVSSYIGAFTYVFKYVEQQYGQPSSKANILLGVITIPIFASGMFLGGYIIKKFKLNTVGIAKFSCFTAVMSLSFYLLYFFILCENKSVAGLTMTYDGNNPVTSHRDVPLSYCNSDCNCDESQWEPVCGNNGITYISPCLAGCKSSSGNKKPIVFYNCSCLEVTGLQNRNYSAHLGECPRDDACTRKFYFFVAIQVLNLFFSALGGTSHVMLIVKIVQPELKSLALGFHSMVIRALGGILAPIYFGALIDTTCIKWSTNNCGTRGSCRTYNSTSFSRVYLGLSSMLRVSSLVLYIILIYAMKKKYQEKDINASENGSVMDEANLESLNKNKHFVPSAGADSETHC

OATP-C [3] = biological target: T2, OATP-C (Homo sapiens, UniProt Q9Y6L6); details: literature reports (Brown 2001, in vitro; Hsiang 1999); cited from earlier work
T2 sequence (Q9Y6L6 1-691): T1 sequence (Q9Y6L6 1-691 N130D/V174A) with D130N, A174V

OATP-C [4] = experiment: Dose-normalised plasma rosuvastatin concentrations by OATP-C genotype/haplotype in patients treated for 6 weeks; assay type: in vivo, human
Source text: In brief, the OATP-C gene was sequenced in 79 human clinical trial subjects. 52 of these patients had received rosuvastatin for at least 6 weeks for dislipidaemic disease and had plasma PK measurements taken after 6 weeks of treatment.
The promoter, exons and 3′ untranslated regions of OATP-C were fully sequenced by DNA terminator sequencing in DNA collected from 79 subjects in clinical trials. Sequencing traces were used to record the genotypes for known (i.e. available in the literature or SNP databases) SNPs in OATP-C. Some novel SNPs were found in the promoter and 3′UTR region of OATP-C.
Mean dose-normalised plasma rosuvastatin concentrations were determined for the genotypes for each polymorphic variant in the OATP-C gene. OATP-C genotype data for 3 SNPs, namely amino acid position 130 Asparagine→Aspartic acid (Asn130Asp), 155 Proline→Threonine (Pro 155Thr) and 174 Valine→Alanine (Val174Ala), was utilised to determine the haplotype pair for each subject. Mean dose-normalised plasma rosuvastatin concentrations were determined for the subjects grouped by haplotype pair.
All consenting subjects treated with rosuvastatin (n=271), from the 2 clinical trials including the original 52 patients, were subsequently genotyped, using TaqMan™, for OATP-C variants. Data for SNPs causing the N130D, P155T and V174A variants were utilised to assign OATPC haplotype pairs to each subject, as previously described.

Row | SMILES | correlation between PK and a haplotype containing a promoter SNP (OATP-C [1]) | effect of OATPC*15 allele (N130D and V174A) on pharmacokinetics (OATP-C [2]) | substrate / transport by OATP-C (OATP-C [3]) | dose-normalised plasma rosuvastatin values, 174Ala variant vs wild type (OATP-C [4]; FIG. 1, 52 subjects, Val174Ala heterozygote vs wild-type homozygote, after 6 weeks of treatment) | dose-normalised plasma rosuvastatin values, OATP-C*15 haplotype vs other haplotypes (OATP-C [4]; FIG. 2, haplotype pairs, after 6 weeks of treatment) | mean plasma rosuvastatin levels (dose normalised), Val174Ala heterozygous vs Val/Val (OATP-C [4]; FIG. 3, patients treated 6 weeks with different doses, most evident at higher doses) | mean plasma rosuvastatin concentrations, az0005537 (-118A>C) A/C heterozygous vs A/A (OATP-C [4]; FIG. 4, two independent phase III studies) | mean plasma rosuvastatin concentrations, 174A variant with az0005537 C allele vs az0005537 A allele (OATP-C [4]; FIG. 5, combined 2 phase III studies, V174A heterozygotes stratified by promoter genotype) | effect of OATP-C variants N130D and P155T on pharmacokinetic disposition (OATP-C [4]; patients, dose-normalised plasma levels)
1 | CC[C@H](C)C(=O)O[C@H]1C[C@H](O)C=C2C=C[C@H](C)[C@H](CC[C@@H](O)C[C@@H](O)CC(=O)O)[C@H]21 [pravastatin] | significant correlation | had an effect | actively transported |  |  |  |  |  | 
2 | CC(C)c1nc(N(C)S(C)(=O)=O)nc(-c2ccc(F)cc2)c1/C=C/[C@@H](O)C[C@@H](O)CC(=O)O [rosuvastatin] |  |  | substrate for OATP-C | higher plasma concentrations | higher plasma concentrations | higher | trend for an increase | tendency for higher mean plasma rosuvastatin concentrations | do not appear to affect
